Assay results published in patent US5792750A, “Materials and method for control of pests” (priority 1997, dated 1998).
No end group written: not given here.

Experiments:
[1] = Stability in solution of mosquito homogenate (including digestive enzymes); format: in vitro ADME; conditions: room temperature, two weeks
Source text: The compounds of the subject invention are white powders that are highly soluble in water. They can be synthesized on a commercial peptide synthesizer. […] Thus, these peptides are particularly attractive for the control of mosquitoes and other pests. Another advantage of the penta- and octa-peptides of the subject invention is that they are more rapidly absorbed in the insect gut. […] Thus, the novel peptides display a more rapid action, a decreased chance for insect gut enzymes to proteolyze the peptide, and high activity. The peptides were not affected by 1% trifluoroacetic acid and were routinely purified using this acid on HPLC.

[2] = system: trypsin-like enzyme biosynthesis in the midgut; test: Inhibition of trypsin-like enzyme biosynthesis after injection of peptides into ligated abdomens of blood-fed female mosquitoes; format: in vivo, Aedes aegypti; conditions: for biological activity: against Aedes aegypti, compared with TMOF or among the analogs; for ability to inhibit trypsin-like enzyme biosynthesis: ligated abdomens of female A. aegypti, 24 hours after injection

## YDPAP [Peptide P1, H2 N--YDPAP--COOH]
[1]
  activity after standing in mosquito homogenate: without loss of activity
[2]
  biological activity: even greater activity than the octa-peptideP4
  ability to inhibit trypsin-like enzyme biosynthesis: demonstrated an ability to inhibit trypsin-like enzyme biosynthesis

## YDPAPPPP [Peptide P4, H2 N--YDPAP4 --COOH]
[2]
  biological activity: retains biological activity
  ability to inhibit trypsin-like enzyme biosynthesis: demonstrated an ability to inhibit trypsin-like enzyme biosynthesis

## YDPAPPPPPP [TMOF, reference compound]
[2]
  ability to inhibit trypsin-like enzyme biosynthesis: demonstrated an ability to inhibit trypsin-like enzyme biosynthesis
